{"source": "patent US20160039852A1", "about": "“THERAPEUTIC USES OF BISPHOSPHONATES” (THE UNIVERSITY OF SHEFFIELD, priority 2013, published 2016)", "key": {"[1]": {"test_system": "normal human dermal fibroblasts", "experiment": "γH2AX DNA damage foci in human dermal fibroblasts after irradiation", "format": "cell-based", "conditions": "1Gy, Zol (1 μM)", "experimental": "(B) Number of yH2AX DNA damage foci in human dermal fibroblasts (n=4 cultures) not irradiated (UI) or exposed to irradiation (IR) 1Gy in the presence or absence of Zol (1 μM) and with the addition of Farnesol (FOH) or geranylgeraniol (GGOH)."}, "unprenylated RAP1A [2]": {"test_system": "unprenylated RAP1A", "experiment": "Unprenylation (unprenylated RAP1A) in murine tissues following treatment", "format": "in vivo, C57BL6/J mice", "conditions": "Zol 125 μg/kg, i.p., 3 days, n=6 mice/group", "experimental": "For in vivo murine experiments C57BL6/J mice aged 8-10 weeks were used. All animals were housed in a conventional, non- specific pathogen free (SPF), mouse facility at the Medical School, University of Sheffield. Mice were fed on a commercially prepared pelleted diet and given water ad libitum. A minimum of 6 mice were used in each experimental group. Depending on the experimental groups, mice were injected either with Zoledronate(single dose, 125 μg/kg) or PBS ip, and sacrificed for tissue collection 3 days after the injection. Snap-frozen tissues were lysed for protein extraction using a tissue homogenizer and mammalian cell lysis buffer containing phosphatase and protease inhibitors. Protein lysates were run on 12% Tris-glycine gels and assessed for unprenylated RAP1A detected by sc1482 antibody RAP1A (Santacruz, USA) at 1:1000 dilution and GAPDH at 1:10000 dilution as described earlier."}, "unprenylated RAP1A [3]": {"test_system": "unprenylated RAP1A", "experiment": "Western blot of unprenylated RAP1A in cancer lines", "format": "cell-based, human and murine", "conditions": "Zol (1 μM) for 72 h", "experimental": "(A) A representative example of western blot analysis of human mesenchymal stem cells (MSC) and human and murine prostate cancer cell lines (human: PC3, murine 178-2 BMA), human breast cancer cell line (MDA-MB231), murine multiple myeloma cancer lines (5TGM1 and 5T33) cultured in presence or absence of Zol (1 μM) for 72 h and assessed for the expression of unprenylated RAP1A and GAPDH.\nProtein lysates (50 μg) were diluted in equal volume of 2× Laemmli buffer (Gibco) containing Dithiothreitol (DTT, Sigma,UK). The samples were heated at 95° C. for 5 minutes and loaded on a 12% Tris-glycine gel. After electro-blotting, membranes were blocked with 5% Bovine serum albumin (BSA) in 0.1% Tween 20 in PBS (PBS-T) for detection of glyceraldehyde-3-phosphate dehydrogenase (GAPDH) and 5% dry milk in PBS-T for detection of unprenylated RAP1A (Santacruz Biotechnology, Santa Cruz, USA). In case of P-AKT, P-70S6K membranes were blocked with 5%BSA in 1× tris buffered saline and 0.1% tween-20 (TBS-T), where for AKT and P70S6K membranes were blocked with 5% dry milk in TBS-T. All membranes were blocked for 2 hours at room temperature. […] Detection was carried out using enhanced chemi-luminescence plus ECL reaction kit (GE Healthcare, Buckinghamshire, UK) and quantification of protein expression was carried out using image J software."}, "murine tissues": {"test_system": "murine tissues", "experiment": "Immuno-staining of γH2AX in murine tissue following irradiation", "format": "in vivo, C57BL6/J mice", "conditions": "3Gy irradiation, Zol 125 μg/kg i.p. for 3 days, 12 h post irradiation", "source_text": "Cells were viewed using in an Inverted Zeiss LSM 510 NLO microscope equipped with Argon (Ar) laser (488 nm) 30 mW to image the fluorescent marker FITC and UV lamp to image DAPI stained nuclei."}, "[4]": {"test_system": "zebrafish embryo caudal fin", "experiment": "Zebrafish tail amputation and regeneration following irradiation", "format": "in vivo, Zebrafish (Danio Rerio H)", "experimental": "Embryos from wild-type Zebrafish (Danio Rerio H) AB strain were collected at 16 cell stage (˜1.5 hours post fertilisation (hpf)) and grown in E3 Medium at 28° C. Embryos were treated with Zoledronate (1 μM) and/or FOH, GGOH at 24 hpf. DNA damage was induced by exposure to ^137Cs Gamma source at 48 hpf and after irradiation the embryo tails were amputated and the embryos were then incubated at 28° C. for a further 12 hrs in the presence of the chemicals. At the end of this period the chemicals were washed off and the embryos were incubated in fresh medium with no chemicals. The embryos were grown up to 120 hpf, following which they were fixed in 4% PFA overnight and then mounted in 100% glycerol. The tail lengths of embryos were measured taking the anal region as starting reference point and the end of the fin fold as the ending point of measurement."}, "[5]": {"test_system": "intestinal crypt and villi", "experiment": "Murine intestine regeneration following irradiation", "format": "in vivo, C57BL6/J mice", "conditions": "Zol 125 μg/kg i.p. 3 days prior to 9Gy", "experimental": "Mice (C57BL6/J) were injected with either Zoledronate (single dose, i.p.,125 μg/kg) or PBS. On day 3 post-injection, Mice were exosed to whole body irradiation (9Gy; n=3/group) using 137Cs Gamma source. Within 24 hours from irradiation systemic bone marrow transplantation was performed to prevent myelotoxicity. mice were sacrificed 4 days post-irradiation for histological analysis of\nIntestinal tissue. At the time of harvest this was divided with a scalpel into duodenum, ileum-jejunum, colon and rectum, and each region was further cut into 0.5 cm pieces that were placed in histological cassettes and stored in 70% ethanol prior to embedding. Tissues were paraffin embedded and sectioned at 3-5 μm thickness and mounted onto […] coated glass microscope slides. The slides were de-waxed in xylene (BDH, Leister, UK) and rehydrated by passing through a series of ethanol dilutions. The nuclei were stained by placing in Gill's haematoxylin (Sigma, Poole, UK), washed with water followed by staining of cytoplasm in alcoholic eosin (Sigma, Poole, UK) and washed. Slides were dehydrated through a series of graded alcohols and cleared in xylene for 3 minutes prior to mounting with DPX and coverslip to examine under microscope. Stained tissue sections were scanned on the Aperio Slide Scanner (Leica Biosystems, Newcastle, UK). To obtain villi length and crypt depth, images were analysed on the Aperio ImageScope Software (v11.2.0.780) and using the ruler tool, measurements were taken on a surface of 0.525 mm^2 at 3 different levels."}, "[6]": {"conditions": "assessed 4 days later, n=3/group"}}, "data": [{"smiles": "O=P(O)(O)C(O)(Cn1ccnc1)P(=O)(O)O", "note": "[Zoledronate]", "values": [{"measurement": "DNA repair ability following irradiation (γH2AX foci)", "setting": "[1]", "result": "enhances DNA repair ability"}, {"measurement": "levels of Rap1A unprenylation in murine tissues", "setting": "unprenylated RAP1A [2]", "result": "increased levels of Rap1A unprenylation"}, {"measurement": "mevalonate pathway (unprenylated RAP1A)", "setting": "unprenylated RAP1A [3]", "result": "inhibition of mevalonate pathway"}, {"measurement": "levels of DNA damage (γH2AX foci) in murine tissues", "setting": "murine tissues", "result": "decreased levels of DNA damage"}, {"measurement": "regeneration of the caudal fin at 120 hpf", "setting": "[4]; 1Gy irradiation, Zol 1 μM, FIG. 6", "result": "enhances tail regeneration"}, {"measurement": "regeneration of the caudal fin at 120 hpf", "setting": "[4]; 1 and 3 Gy irradiation (data not shown)", "result": "same outcome"}, {"measurement": "regeneration of the caudal fin at 120 hpf", "setting": "[4]; 5 Gy irradiation, Zol 1 μM, n=15/group", "result": "enhances tail regeneration"}, {"measurement": "regeneration of the caudal fin at 120 hpf", "setting": "[4]; 5 Gy irradiation, Zol 1 μM, n=15/group, listed as Zol", "result": "rescued"}, {"measurement": "protection of intestinal crypt and villi following irradiation", "setting": "[5]", "result": "protects intestinal crypt and villi"}, {"measurement": "intestinal crypt depth", "setting": "[5]; [6]", "result": "improved"}, {"measurement": "villi length", "setting": "[5]; [6]", "result": "improved"}]}]}
